{"source": "patent US20220362153A1", "about": "“COMPOSITIONS AND METHODS FOR PULMONARY SURFACTANT-BIOMIMETIC NANOPARTICLES” (priority 2019, published 2022)", "tested_on": "NC09 H1N1 virus", "format": "in vivo", "conditions": "unimmunized mice, 20 mg/kg/day"}
{"smiles": "CCOC(=O)C1=C[C@@H](OC(CC)CC)[C@H](NC(C)=O)[C@@H](N)C1", "note": "[oseltamivir]", "values": [{"measurement": "control of NC09 viral infection", "value": "but not NC09"}]}
